Test results from PMC7619385 (ACS infectious diseases, 2025).
Counter-ions that a name gives are not always drawn. Like-named read-outs stand apart in the source and are kept apart here.

Target: T1, LmxCLK1 (Leishmania mexicana, UniProt E9AMP2)
T1 sequence (E9AMP2 1-422): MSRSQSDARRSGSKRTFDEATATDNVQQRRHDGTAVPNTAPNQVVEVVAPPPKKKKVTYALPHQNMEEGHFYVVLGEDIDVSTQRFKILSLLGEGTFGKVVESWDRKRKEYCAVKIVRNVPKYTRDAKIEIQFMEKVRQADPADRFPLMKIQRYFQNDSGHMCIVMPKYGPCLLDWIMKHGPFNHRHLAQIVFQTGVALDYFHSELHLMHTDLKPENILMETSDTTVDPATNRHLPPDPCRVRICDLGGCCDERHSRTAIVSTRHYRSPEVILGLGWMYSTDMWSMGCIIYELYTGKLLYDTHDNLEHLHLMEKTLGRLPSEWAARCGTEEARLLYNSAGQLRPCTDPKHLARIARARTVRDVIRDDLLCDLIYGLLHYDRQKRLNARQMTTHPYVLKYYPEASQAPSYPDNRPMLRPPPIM
Test: biochemical
Assay type: binding

[1] = DSF, 10 µM compound, 2 µM LmxCLK1, Run 1
[2] = DSF, 10 µM compound, 2 µM LmxCLK1, Run 2
[3] = DSF, 10 µM compound, 2 µM LmxCLK1, mean of two runs
[4] = DSF, 10 µM compound, 2 µM LmxCLK1, Run 1, read-out: ΔTm Run 1
[5] = DSF, 10 µM compound, 2 µM LmxCLK1, Run 2, read-out: ΔTm Run 2
[6] = DSF, 10 µM compound, 2 µM LmxCLK1, mean of two runs, read-out: ΔTm Average

SMILES | ΔTm Run 1 [1] [°C] | ΔTm Run 2 [2] [°C] | ΔTm Average [3] [°C] | ΔTm at 10 µM [4] [°C] | ΔTm at 10 µM [5] [°C] | ΔTm at 10 µM [6] [°C] | other results
O=C1Nc2ccccc2/C1=C1/Nc2ccccc2C1=O [Indirubin] | – | – | – | – | – | – | ΔTm at 10 µM (read-out: ΔTm Average): 0 °C; ΔTm at 10 µM (read-out: ΔTm Run 1): 0.1 °C; ΔTm at 10 µM (read-out: ΔTm Run 2): -0.1 °C
CCN1CCN(Cc2ccc(-c3cc4c(N[C@H](C)c5ccccc5)ncnc4[nH]3)cc2)CC1 [AEE788 (NVP-AEE788)] | 0.2 | 0.3 | 0.3 | – | – | – | –
Cc1ccc(-n2nc(C(C)(C)C)cc2NC(=O)Nc2ccc(OCCN3CCOCC3)c3ccccc23)cc1 [BIRB 796 (Doramapimod)] | 0.5 | 0.4 | 0.4 | – | – | – | –
CC1(COc2ccc3c(c2)ncn3-c2ccc3cccc(N4CCC(N)CC4)c3n2)COC1 [Crenolanib (CP-868596)] | 0.5 | -0.1 | 0.2 | – | – | – | –
N#Cc1c(NC(=O)c2cccc3ccccc23)sc2c1CCCC2 [JNK Inhibitor IX] | 0.3 | -0.1 | 0.1 | – | – | – | –
CS(=O)(=O)N1CCc2c(-c3cnc(N)nc3)nc(N3CCOCC3)nc21 [CH5132799] | – | – | – | 0.4 | 0.1 | 0.2 | –
Nc1nccc(Oc2ccc(NC(=O)c3c[nH]cc(-c4ccc(F)cc4)c3=O)cc2F)c1Cl [BMS-794833] | – | – | – | -0.1 | -0.4 | -0.3 | –
O=C(NC(NC(=S)Nc1ccc(F)c([N+](=O)[O-])c1)C(Cl)(Cl)Cl)C(c1ccccc1)c1ccccc1 (stereo not drawn) [CGK 733] | -0.6 | 0.0 | -0.3 | – | – | – | –
COc1cc2c(Nc3ccc(NC(=O)c4ccccc4)cc3)ncnc2cc1OCCCN1CCOCC1 [ZM 447439] | 0.0 | -0.2 | -0.1 | – | – | – | –
O=C(NOCC(O)CO)c1cc(Br)c(F)c(F)c1Nc1ccc(I)cc1F (stereo not drawn) [PD318088] | 0.4 | 0.1 | 0.2 | – | – | – | –
CCC[C@H](NC(=O)/C(C#N)=C/c1cccc(Br)n1)c1ccccc1 [Degrasyn (WP1130)] | 0.4 | 0.2 | 0.3 | – | – | – | –
Oc1c2ccccc2c2c3c(cccc13)N=N2 [SP600125] | – | – | – | 0.1 | -0.3 | -0.1 | –
CCCS(=O)(=O)Nc1ccc(F)c(C(=O)c2c[nH]c3ncc(-c4ccc(Cl)cc4)cc23)c1F [Vemurafenib (PLX4032)] | -0.1 | -0.1 | -0.1 | – | – | – | –
COc1ccc(C(=O)Nc2sc3c(c2C(N)=O)CCCC3)cc1OC [TCS 359] | 0.0 | 0.0 | 0.0 | – | – | – | –
CN1CCN(c2cccc(Nc3nc4c(-c5ccc(S(C)(=O)=O)cc5)cccn4n3)c2)CC1 [CEP-33779] | 0.5 | 0.5 | 0.5 | – | – | – | –
Nc1nc(Nc2ccc(S(N)(=O)=O)cc2)nn1C(=O)c1c(F)cccc1F [JNJ-7706621] | – | – | – | 1.4 | 1.7 | 1.6 | –
CCN(CCO)CCCOc1ccc2c(Nc3cc(CC(=O)Nc4cccc(F)c4)[nH]n3)ncnc2c1 [Barasertib (AZD1152-HQPA)] | 0.4 | -0.1 | 0.1 | – | – | – | –
O=c1c(O)c(-c2ccc(O)c(O)c2)oc2cc(O)cc(O)c12 [Quercetin] | – | – | – | 0.5 | 0.6 | 0.5 | –
CNC(=O)CN1CCC(Oc2cc3c(Nc4cccc(Cl)c4F)ncnc3cc2OC)CC1 [AZD8931 (Sapitinib)] | -0.1 | -0.2 | -0.1 | – | – | – | –
CS(=O)(=O)c1cccc(CNc2nc(Nc3ccc4c(c3)CCC(=O)N4)ncc2C(F)(F)F)c1 [PF-573228] | 0.1 | -0.3 | -0.1 | – | – | – | –
CO[C@@H](C(=O)N1Cc2n[nH]c(NC(=O)c3ccc(N4CCN(C)CC4)cc3)c2C1)c1ccccc1 [Danusertib (PHA-739358)] | – | – | – | 0.3 | 0.1 | 0.2 | –
CCc1cccc(CC)c1NC(=O)N1Cc2n[nH]c(NC(=O)c3ccc(N4CCN(C)CC4)cc3)c2C1 [PHA-680632] | – | – | – | 0.7 | 0.6 | 0.6 | –
Cc1[nH]c(/C=C2\C(=O)Nc3ccc(S(=O)(=O)Cc4c(Cl)cccc4Cl)cc32)c(C)c1C(=O)N1CCC[C@@H]1CN1CCCC1 [PHA-665752] | – | – | – | 0.1 | 0.1 | 0.1 | –
Cc1ccc(C(=O)Nc2cccc(C(F)(F)F)c2)cc1Nc1nc(-c2cccnc2)nc2c1cnn2C [NVP-BHG712] | 0.1 | -0.3 | -0.1 | – | – | – | –

SMILES | ΔTm Run 1 [1] [°C] | ΔTm Run 2 [2] [°C] | ΔTm Average [3] [°C] | ΔTm at 10 µM [4] [°C] | ΔTm at 10 µM [5] [°C] | ΔTm at 10 µM [6] [°C] | other results
Nc1ncnc2c1c(-c1cccc(OCc3ccccc3)c1)cn2C1CC(CN2CCCC2)C1 (stereo not drawn) [NVP-ADW742] | 0.0 | -0.2 | -0.1 | – | – | – | –
CCO.N#CC(=C(/N)Sc1ccccc1N)/C(C#N)=C(\N)Sc1ccccc1N [U0126-EtOH] | – | – | – | – | – | – | ΔTm Average: -0.1; ΔTm Run 1: -0.4; ΔTm Run 2: 0.1 °C
Nc1nc(N)c2nc(-c3cccc(O)c3)cnc2n1 [TG100713] | – | – | – | – | – | – | ΔTm Average: -0.1; ΔTm Run 1: 0.1 °C; ΔTm Run 2: -0.2
CC(C)(C)Cn1c(N)nc2ccc(-c3[nH]c(C(C)(C)C)nc3-c3ccc(F)cc3)nc21 [LY2228820] | – | – | – | -0.3 | -0.3 | -0.3 | –
CCCCOc1c(C(=O)c2c(F)cc(C)cc2F)c[nH]c2nncc1-2 [BMS-265246] | – | – | – | -0.1 | -0.3 | -0.2 | –
COc1cc(Nc2ncc3c(n2)-c2ccc(Cl)cc2C(c2c(F)cccc2OC)=NC3)ccc1C(=O)O [Alisertib (MLN8237)] | – | – | – | 0.1 | -0.3 | -0.1 | –
CNC(=O)c1cc(Oc2ccc(NC(=O)Nc3cc(C(C)(C)C)nn3-c3ccc4ncccc4c3)c(F)c2)ccn1 [DCC-2036 (Rebastinib)] | -0.2 | -0.4 | -0.3 | – | – | – | –
Cn1c(Nc2ccc(C(F)(F)F)cc2)nc2cc(Oc3ccnc(-c4ncc(C(F)(F)F)[nH]4)c3)ccc21 [RAF265 (CHIR-265)] | -0.1 | -0.3 | -0.2 | – | – | – | –
OCCn1cc(-c2ccc3c(c2)CC/C3=N\O)c(-c2ccncc2)n1 [GDC-0879] | – | – | – | 0 | -0.2 | -0.1 | –
CN1CCN(C2CCN(C(=O)Nc3cc(Oc4ccc(NC(=O)C5(C(=O)Nc6ccc(F)cc6)CC5)c(F)c4)ccn3)CC2)CC1 [Golvatinib (E7050)] | – | – | – | – | – | – | ΔTm at 10 µM (read-out: ΔTm Average): 0.6 °C; ΔTm at 10 µM (read-out: ΔTm Run 1): 0.5 °C; ΔTm at 10 µM (read-out: ΔTm Run 2): 0.7 °C
COc1cc(OC)c(/C=C/S(=O)(=O)Cc2ccc(OC)c(NCC(=O)O)c2)c(OC)c1 [Rigosertib (ON-01910)] | -0.2 | -0.4 | -0.3 | – | – | – | –
CCN1CCN(C(=O)Cc2ccc(Nc3ncc(F)c(Nc4ccc(C(=O)Nc5ccccc5Cl)cc4)n3)cc2)CC1 [Aurora A Inhibitor I] | 0.0 | -0.1 | -0.1 | – | – | – | –
Cc1nc(Nc2[nH]nc3c2CN(C(=O)N[C@H](CN(C)C)c2ccccc2)C3(C)C)c2sccc2n1 [PF-3758309] | – | – | – | 0.7 | 0.5 | 0.6 | –
Cc1ccc(-c2nn(C(C)(C)C)c3ncnc(N)c23)cc1 [PP1] | – | – | – | – | – | – | ΔTm Average: 0 °C; ΔTm Run 1: 0.2 °C; ΔTm Run 2: -0.2
C[C@@H]1COCCN1c1cc(C2(S(C)(=O)=O)CC2)nc(-c2cccc3[nH]ccc23)n1 [AZ20] | – | – | – | – | – | – | ΔTm Average: -0.3; ΔTm Run 1: -0.2; ΔTm Run 2: -0.5
Cl.Cl.Fc1cc(-c2cccc3ncc(-c4cnn(C5CCNCC5)c4)nc23)cc(F)c1CN1CCOCC1 [NVP-BSK805 2HCl] | 0.9 | 0.7 | 0.8 | – | – | – | –
CN1CCC(CNc2ccc3ncc(-c4cccc(OC(F)(F)F)c4)n3n2)CC1 [SGI-1776 free base] | 0.7 | 0.5 | 0.6 | – | – | – | –
COc1cc2nccc(Oc3ccc(NC(=O)NC4CC4)c(Cl)c3)c2cc1C(N)=O [Lenvatinib (E7080)] | -0.1 | -0.4 | -0.3 | – | – | – | –
[H]/N=C(/N)N/C(=N/[H])NCCc1ccccc1 [Phenformin HCl] | – | – | – | 0 | -0.4 | -0.2 | –
CC(C)c1cnn2c(NCc3ccccc3)cc(NCCCCCCN)nc12.Cl [BS-181 HCl] | -0.3 | -0.2 | -0.3 | – | – | – | –
Cc1cc(Nc2cc(CN3CCOCC3)c3nc(C)c(Cc4ccc(Cl)cc4F)n3n2)n[nH]1 [LY2784544] | – | – | – | -0.3 | -0.4 | -0.4 | –
C#Cc1cccc(Nc2ncnc3cc4c(cc23)OCCOCCOCCO4)c1 [Icotinib] | – | – | – | -0.3 | -0.2 | -0.3 | –
CCN(CC)CCCC(C)Nc1nc(C)cc(Nc2ccc3nc(C)cc(N)c3c2)n1 (stereo not drawn) [NSC 23766] | 0.0 | -0.1 | 0.0 | – | – | – | –
